PMC5452050 (ACS Omega, 2017)
Changes are numbered by the printed parent chain. Converted amounts (≈) assume the structure as drawn.

Experiments:
[1] = biological target: PIP5K1C (Homo sapiens, UniProt O60331); assay: Kd determination; type: binding
[2] = biological target: T1, FLT3-autoinhibited (Homo sapiens, UniProt P36888); assay: Kd determination; type: binding
T1 sequence (P36888 564-993 limits assumed): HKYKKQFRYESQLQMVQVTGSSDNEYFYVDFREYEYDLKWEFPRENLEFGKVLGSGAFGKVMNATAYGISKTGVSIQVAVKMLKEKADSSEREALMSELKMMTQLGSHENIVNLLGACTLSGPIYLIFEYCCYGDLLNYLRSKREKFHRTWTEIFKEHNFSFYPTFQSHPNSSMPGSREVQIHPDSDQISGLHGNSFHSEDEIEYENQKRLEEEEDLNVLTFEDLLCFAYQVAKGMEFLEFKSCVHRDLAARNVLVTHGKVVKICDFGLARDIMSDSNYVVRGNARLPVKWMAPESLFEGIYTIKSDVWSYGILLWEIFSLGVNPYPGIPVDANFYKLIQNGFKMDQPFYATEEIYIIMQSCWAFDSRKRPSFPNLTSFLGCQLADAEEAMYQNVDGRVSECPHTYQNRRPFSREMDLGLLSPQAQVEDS

[3] = Liver microsomal stability; settings: both, human, liver microsomes, pH 7.4
[4] = biological target: PIK4CB (Homo sapiens, UniProt Q9UBF8); assay: Kd determination; type: binding
[5] = Liver microsomal stability; settings: dog, liver microsomes, pH 7.4
[6] = Solubility; type: physicochemical; settings: buffer, pH 7.4, aqueous buffer, kinetic from dmso stock
[7] = biological target: NEK10 (Homo sapiens, UniProt Q6ZWH5); assay: Kd determination; type: binding
[8] = biological target: T2, FLT3 (D835Y) (Homo sapiens, UniProt P36888, D835Y); assay: Kd determination; type: binding
T2 sequence (P36888 27-993 D835Y): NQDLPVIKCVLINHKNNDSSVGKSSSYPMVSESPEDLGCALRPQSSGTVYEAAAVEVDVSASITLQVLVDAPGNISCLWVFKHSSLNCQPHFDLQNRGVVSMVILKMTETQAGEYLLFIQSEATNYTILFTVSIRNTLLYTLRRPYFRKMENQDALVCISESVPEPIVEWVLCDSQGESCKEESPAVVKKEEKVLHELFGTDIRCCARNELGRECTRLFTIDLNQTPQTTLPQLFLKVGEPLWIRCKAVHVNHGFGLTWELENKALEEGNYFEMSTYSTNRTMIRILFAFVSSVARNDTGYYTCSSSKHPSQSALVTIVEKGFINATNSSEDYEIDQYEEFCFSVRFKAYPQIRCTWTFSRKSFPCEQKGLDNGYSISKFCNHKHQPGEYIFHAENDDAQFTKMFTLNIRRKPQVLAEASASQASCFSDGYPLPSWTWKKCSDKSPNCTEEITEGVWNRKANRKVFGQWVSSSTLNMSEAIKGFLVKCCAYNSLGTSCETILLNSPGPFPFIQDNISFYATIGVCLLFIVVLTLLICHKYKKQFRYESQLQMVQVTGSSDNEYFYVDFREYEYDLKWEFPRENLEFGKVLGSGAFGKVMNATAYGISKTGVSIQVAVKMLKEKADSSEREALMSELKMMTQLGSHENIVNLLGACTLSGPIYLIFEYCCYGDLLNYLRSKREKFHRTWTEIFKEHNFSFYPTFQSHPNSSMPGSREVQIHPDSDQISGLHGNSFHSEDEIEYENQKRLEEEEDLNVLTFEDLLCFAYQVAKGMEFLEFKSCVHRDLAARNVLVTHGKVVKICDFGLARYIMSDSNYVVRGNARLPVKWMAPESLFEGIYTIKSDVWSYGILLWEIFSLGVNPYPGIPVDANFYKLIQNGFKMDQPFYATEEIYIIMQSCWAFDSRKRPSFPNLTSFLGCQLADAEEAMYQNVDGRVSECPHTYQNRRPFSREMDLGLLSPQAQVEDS

[9] = biological target: CLK1 (Homo sapiens, UniProt P49759); assay: Kd determination; type: binding
[10] = biological target: PDGFRB (Homo sapiens, UniProt P09619); assay: Kd determination; type: binding
[11] = biological target: T3, FLT3 (ITD) (Homo sapiens, UniProt P36888, ITD); assay: Kd determination; type: binding
T3 sequence (P36888 564-993): T1 sequence (P36888 564-993 limits assumed)

[12] = biological target: T4, FLT3 (D835V) (Homo sapiens, UniProt P36888, D835V); assay: Kd determination; type: binding
T4 sequence (P36888 27-993 D835V): T2 sequence (P36888 27-993 D835Y) with Y809V

Sequence of CLK1 (P49759 whole entry): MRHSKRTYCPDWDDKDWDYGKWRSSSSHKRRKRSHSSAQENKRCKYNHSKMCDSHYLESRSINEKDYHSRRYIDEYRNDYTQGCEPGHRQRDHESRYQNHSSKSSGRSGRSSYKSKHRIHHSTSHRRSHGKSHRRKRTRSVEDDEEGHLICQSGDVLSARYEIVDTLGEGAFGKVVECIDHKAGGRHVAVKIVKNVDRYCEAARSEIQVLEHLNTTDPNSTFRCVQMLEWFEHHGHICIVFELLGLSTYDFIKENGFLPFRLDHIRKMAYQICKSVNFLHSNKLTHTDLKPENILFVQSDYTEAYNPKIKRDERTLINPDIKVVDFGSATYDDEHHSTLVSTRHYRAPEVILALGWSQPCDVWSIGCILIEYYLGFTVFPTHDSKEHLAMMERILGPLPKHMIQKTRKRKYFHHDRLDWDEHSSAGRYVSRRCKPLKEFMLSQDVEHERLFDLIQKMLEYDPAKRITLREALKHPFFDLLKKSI
Sequence of PIP5K1C (O60331 whole entry): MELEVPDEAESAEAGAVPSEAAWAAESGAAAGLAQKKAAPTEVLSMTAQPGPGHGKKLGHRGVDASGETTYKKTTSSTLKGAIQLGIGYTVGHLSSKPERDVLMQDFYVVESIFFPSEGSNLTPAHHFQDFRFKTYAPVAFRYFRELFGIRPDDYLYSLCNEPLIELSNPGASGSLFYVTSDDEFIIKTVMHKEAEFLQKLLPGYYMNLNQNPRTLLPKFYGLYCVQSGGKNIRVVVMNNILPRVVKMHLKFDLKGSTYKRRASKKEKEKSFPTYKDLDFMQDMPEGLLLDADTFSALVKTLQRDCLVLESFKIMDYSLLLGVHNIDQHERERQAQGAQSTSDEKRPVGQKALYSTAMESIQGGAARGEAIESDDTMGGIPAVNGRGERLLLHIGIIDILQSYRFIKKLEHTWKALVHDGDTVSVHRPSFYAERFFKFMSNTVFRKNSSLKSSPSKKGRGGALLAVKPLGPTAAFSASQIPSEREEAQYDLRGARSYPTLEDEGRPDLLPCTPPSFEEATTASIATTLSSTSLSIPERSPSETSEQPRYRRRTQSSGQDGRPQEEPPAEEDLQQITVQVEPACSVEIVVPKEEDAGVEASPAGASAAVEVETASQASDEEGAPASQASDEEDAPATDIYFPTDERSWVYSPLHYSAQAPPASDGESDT
Sequence of PDGFRB (P09619 33-1106): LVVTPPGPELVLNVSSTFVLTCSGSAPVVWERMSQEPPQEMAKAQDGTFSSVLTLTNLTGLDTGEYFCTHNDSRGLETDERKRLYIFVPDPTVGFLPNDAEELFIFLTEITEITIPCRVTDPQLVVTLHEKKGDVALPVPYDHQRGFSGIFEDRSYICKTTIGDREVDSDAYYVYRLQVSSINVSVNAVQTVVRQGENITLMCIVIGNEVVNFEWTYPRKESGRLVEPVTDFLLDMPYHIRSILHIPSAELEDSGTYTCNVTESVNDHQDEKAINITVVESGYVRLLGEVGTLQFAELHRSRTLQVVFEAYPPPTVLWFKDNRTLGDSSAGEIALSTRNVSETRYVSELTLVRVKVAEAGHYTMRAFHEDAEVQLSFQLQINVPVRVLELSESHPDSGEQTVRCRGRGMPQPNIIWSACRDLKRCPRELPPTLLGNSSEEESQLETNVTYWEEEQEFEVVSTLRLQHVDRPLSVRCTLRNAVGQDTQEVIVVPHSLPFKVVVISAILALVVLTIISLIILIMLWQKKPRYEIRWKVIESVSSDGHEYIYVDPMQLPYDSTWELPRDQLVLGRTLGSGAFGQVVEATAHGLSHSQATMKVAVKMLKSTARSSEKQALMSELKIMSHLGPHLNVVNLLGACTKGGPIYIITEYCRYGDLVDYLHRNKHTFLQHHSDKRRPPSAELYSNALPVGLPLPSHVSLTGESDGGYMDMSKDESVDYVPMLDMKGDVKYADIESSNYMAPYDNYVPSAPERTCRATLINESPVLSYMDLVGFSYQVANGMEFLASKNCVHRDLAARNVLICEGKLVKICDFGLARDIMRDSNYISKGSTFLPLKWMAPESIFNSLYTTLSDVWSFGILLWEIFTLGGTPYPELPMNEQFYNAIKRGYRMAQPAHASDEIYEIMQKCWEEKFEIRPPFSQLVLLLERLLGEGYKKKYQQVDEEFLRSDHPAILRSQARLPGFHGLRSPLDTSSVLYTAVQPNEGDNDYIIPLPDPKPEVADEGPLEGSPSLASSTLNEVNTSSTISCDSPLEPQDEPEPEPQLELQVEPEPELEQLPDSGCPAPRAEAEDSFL
Sequence of NEK10 (Q6ZWH5 whole entry): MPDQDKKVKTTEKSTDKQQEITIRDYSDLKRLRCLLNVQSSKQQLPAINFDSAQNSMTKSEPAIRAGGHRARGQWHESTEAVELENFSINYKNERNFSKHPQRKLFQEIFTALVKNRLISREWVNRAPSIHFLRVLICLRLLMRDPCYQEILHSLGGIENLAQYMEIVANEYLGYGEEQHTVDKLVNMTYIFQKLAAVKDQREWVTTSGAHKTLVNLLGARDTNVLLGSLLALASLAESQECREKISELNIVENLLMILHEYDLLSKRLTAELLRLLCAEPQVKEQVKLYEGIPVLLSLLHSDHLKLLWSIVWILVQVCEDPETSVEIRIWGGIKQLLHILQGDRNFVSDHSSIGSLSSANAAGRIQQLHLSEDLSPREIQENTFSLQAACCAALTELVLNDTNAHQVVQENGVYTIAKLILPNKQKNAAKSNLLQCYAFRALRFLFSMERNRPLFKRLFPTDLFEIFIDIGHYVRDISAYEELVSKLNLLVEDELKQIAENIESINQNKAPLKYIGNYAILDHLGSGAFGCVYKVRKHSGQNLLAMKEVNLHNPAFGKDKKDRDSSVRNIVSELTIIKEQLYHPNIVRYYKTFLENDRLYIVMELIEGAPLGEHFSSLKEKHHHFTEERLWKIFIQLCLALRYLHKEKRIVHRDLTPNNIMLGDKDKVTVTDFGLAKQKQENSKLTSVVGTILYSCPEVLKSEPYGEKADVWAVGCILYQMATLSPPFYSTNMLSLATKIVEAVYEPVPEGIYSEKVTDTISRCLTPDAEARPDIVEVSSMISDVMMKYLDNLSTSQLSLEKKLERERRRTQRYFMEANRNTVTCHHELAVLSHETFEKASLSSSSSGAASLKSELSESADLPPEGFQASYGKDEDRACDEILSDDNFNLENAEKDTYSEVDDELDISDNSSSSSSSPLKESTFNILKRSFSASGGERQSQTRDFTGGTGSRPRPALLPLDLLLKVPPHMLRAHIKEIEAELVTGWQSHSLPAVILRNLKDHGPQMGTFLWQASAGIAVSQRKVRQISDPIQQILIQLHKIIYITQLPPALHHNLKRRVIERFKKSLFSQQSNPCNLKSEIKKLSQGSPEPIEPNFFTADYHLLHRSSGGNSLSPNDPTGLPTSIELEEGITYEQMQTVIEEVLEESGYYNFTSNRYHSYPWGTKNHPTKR
Sequence of PIK4CB (Q9UBF8 whole entry): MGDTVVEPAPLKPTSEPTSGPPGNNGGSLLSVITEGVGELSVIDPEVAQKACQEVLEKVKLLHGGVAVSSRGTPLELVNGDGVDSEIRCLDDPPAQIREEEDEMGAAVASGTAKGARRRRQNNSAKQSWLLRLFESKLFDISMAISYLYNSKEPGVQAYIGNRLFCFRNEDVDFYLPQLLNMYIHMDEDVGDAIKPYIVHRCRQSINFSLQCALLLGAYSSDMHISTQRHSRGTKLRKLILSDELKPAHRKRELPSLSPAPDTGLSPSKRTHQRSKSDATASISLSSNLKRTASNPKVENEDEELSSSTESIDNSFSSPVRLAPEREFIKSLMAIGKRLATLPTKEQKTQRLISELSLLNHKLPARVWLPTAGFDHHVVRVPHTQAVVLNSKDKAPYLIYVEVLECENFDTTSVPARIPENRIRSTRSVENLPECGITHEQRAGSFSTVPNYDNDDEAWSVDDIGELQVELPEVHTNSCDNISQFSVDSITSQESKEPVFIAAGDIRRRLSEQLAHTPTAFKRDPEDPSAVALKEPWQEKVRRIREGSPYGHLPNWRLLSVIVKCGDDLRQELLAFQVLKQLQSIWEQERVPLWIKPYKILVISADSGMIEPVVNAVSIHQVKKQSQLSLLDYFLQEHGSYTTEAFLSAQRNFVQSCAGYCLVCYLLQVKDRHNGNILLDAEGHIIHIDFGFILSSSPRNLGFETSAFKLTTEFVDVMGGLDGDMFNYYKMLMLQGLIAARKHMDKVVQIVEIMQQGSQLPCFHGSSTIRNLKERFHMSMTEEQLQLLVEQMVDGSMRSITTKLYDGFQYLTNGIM

SMILES | Kd [1] | Kd [2] | CLint scaled at 4 µM [3] | half-life at 4 µM [3] | Kd [4] | CLint scaled at 4 µM [5] | half-life at 4 µM [5] | solubility at 18 h [6] | Kd [7] | Kd [8] | Kd [9] | Kd [10] | Kd [11] | Kd [12]
CC(C)Nc1ccnc(Nc2cccc(-c3cccnc3)c2)n1 [Compound 5e, N^4-Isopropyl-N^2-(3-(pyridin-3-yl)phenyl)pyrimidine-2,4-diamine] | 1.3 µM | 0.078 µM | 10 ± 0.6 mL/min/kg | 2.1 ± 0.1 h | 0.33 µM | 28.2 ± 1.9 mL/min/kg | 1.2 ± 0.1 h | 26.4 ± 17 µM (≈ 8.06 µg/mL) | 2 µM | 0.00059 µM | 0.26 µM | 0.028 µM | 0.0014 µM | 0.0008 µM
c1cncc(-c2cccc(Nc3nccc(NC4CCCCC4)n3)c2)c1 [Compound 1, N^4-Cyclohexyl-N^2-(3-(pyridin-3-yl)phenyl)pyrimidine-2,4-diamine] | 0.61 µM | 1.1 µM | 26.6 ± 2.2 mL/min/kg | 0.8 ± 0.1 h | 0.37 µM | 49.4 ± 3.9 mL/min/kg | 0.7 ± 0.1 h | 0.4 ± 0.9 µM (≈ 0.138 µg/mL) | 0.41 µM | 0.013 µM | 0.43 µM | 0.12 µM | 0.031 µM | 0.0077 µM
CC(C)Nc1ccnc(Nc2ccccc2-c2ccccc2)n1 [Compound 6a, N^2-([1,1′-Biphenyl]-2-yl)-N^4-isopropylpyrimidine-2,4-diamine] | – | > 10 µM | – | – | – | – | – | – | – | > 10 µM | – | – | > 10 µM | > 10 µM
